Measured values from ChEMBL document CHEMBL6121016, “Design, Synthesis, and Biological Evaluation of 1,3,4-Thiadiazole Derivatives as Novel Potent Peptide Deformylase Inhibitors for Combating Drug-Resistant Gram-Positive and -Negative Bacteria” (J Med Chem, 2025).
Converted amounts (≈) assume the structure as drawn. The source made the active and inactive calls. The rule behind the calls is not given here.

Tests used:
Staphylococcus aureus [1] = assay: Antibacterial activity against methicillin-resistant Staphylococcus aureus ATCC 33591 after 16 to 18 hrs by broth microdilution method; type: functional; details: time 16-18 hrs
Staphylococcus aureus [2] = assay: Antibacterial activity against methicillin-resistant Staphylococcus aureus ATCC 43300 after 16 to 18 hrs by broth microdilution method; type: functional; details: time 16-18 hrs
Staphylococcus aureus [3] = assay: Antibacterial activity against methicillin-resistant Staphylococcus aureus Bio-090770 after 16 to 18 hrs by broth microdilution method; type: functional; details: time 16-18 hrs
Staphylococcus aureus [4] = assay: Antibacterial activity against methicillin-susceptible Staphylococcus aureus ATCC 29213 after 16 to 18 hrs by broth microdilution method; type: functional; details: time 16-18 hrs
Staphylococcus aureus [5] = assay: Antibacterial activity against methicillin-susceptible Staphylococcus aureus ATCC 13709 after 16 to 18 hrs by broth microdilution method; type: functional; details: time 16-18 hrs
[6] = tested on: Staphylococcus epidermidis; assay: Antibacterial activity against Staphylococcus epidermidis after 16 to 18 hrs by broth microdilution method; type: functional; details: time 16-18 hrs
Klebsiella pneumoniae [7] = assay: Antibacterial activity against Klebsiella pneumoniae CICC 21611 after 16 to 18 hrs by broth microdilution method; type: functional; details: time 16-18 hrs
Acinetobacter baumannii [8] = assay: Antibacterial activity against Acinetobacter baumannii Bio 34235 after 16 to 18 hrs by broth microdilution method; type: functional; details: time 16-18 hrs
Acinetobacter baumannii [9] = assay: Antibacterial activity against drug-resistant Acinetobacter baumannii Bio 53272 after 16 to 18 hrs by broth microdilution method; type: functional; details: time 16-18 hrs
Acinetobacter baumannii [10] = assay: Antibacterial activity against Acinetobacter baumannii Bio 53272 after 16 to 18 hrs by broth microdilution method; type: functional; details: time 16-18 hrs
Acinetobacter baumannii [11] = assay: Antibacterial activity against Acinetobacter baumannii Bio 24253 after 16 to 18 hrs by broth microdilution method; type: functional; details: time 16-18 hrs
Klebsiella pneumoniae [12] = assay: Antibacterial activity against Klebsiella pneumoniae CICC 21092 after 16 to 18 hrs by broth microdilution method; type: functional; details: time 16-18 hrs
Klebsiella pneumoniae [13] = assay: Antibacterial activity against Klebsiella pneumoniae CICC 20093 after 16 to 18 hrs by broth microdilution method; type: functional; details: time 16-18 hrs
Escherichia coli [14] = assay: Antibacterial activity against Escherichia coli ATCC 10668 after 16 to 18 hrs by broth microdilution method; type: functional; details: time 16-18 hrs
Escherichia coli [15] = assay: Antibacterial activity against Escherichia coli ATCC 10663 after 16 to 18 hrs by broth microdilution method; type: functional; details: time 16-18 hrs
[16] = Cytotoxicity against human HEK293T cells assessed as cell viability at 3.125 to 100 uM incubated for 24 hrs by MTT assay; type: toxicity, cell-based, HEK-293T
[17] = Cytotoxicity against human HeLa cells assessed as cell viability at 3.125 to 100 uM incubated for 24 hrs by MTT assay; type: toxicity, cell-based
[18] = Aqueous solubility of compound at 0.9% aqueous NaCl solution incubated for 2 hrs by UV spectrophotometry analysis; type: physicochemical
Escherichia coli [19] = assay: Potency index, ratio of LBM415 MIC to test compound MIC for antibacterial activity against Escherichia coli after 16 to 18 hrs by broth microdilution method; type: functional; details: time 16-18 hrs
Acinetobacter baumannii [20] = assay: Potency index, ratio of ciprofloxacin MIC to test compound MIC for antibacterial activity against drug-resistant Acinetobacter baumannii after 16 to 18 hrs by broth microdilution method; type: functional; details: time 16-18 hrs
Cell membrane = assay: Induction of cell membrane disruption in methicillin-resistant Staphylococcus aureus assessed as […] integrity by NucGreen/EthD-III costain fluorescent assay; type: subcellular
Staphylococcus aureus [21] = assay: Induction of morphological changes in methicillin-resistant Staphylococcus aureus RB 3641 assessed as disintegration of cells at 8 times of MIC incubated for 4 hrs by Field emission scanning electron microscopic analysis; type: functional, organism-based
Acinetobacter baumannii [22] = assay: Induction of morphological changes in Acinetobacter baumannii Bio 53272 assessed as increased wrinkles at 8 times of MIC incubated for 4 hrs by Field emission scanning electron microscopic analysis; type: functional, organism-based
Acinetobacter baumannii [23] = assay: Induction of intracellular ROS production in Acinetobacter baumannii Bio 53272 cells assessed as membrane potential imbalance incubated for 12 hrs by DCFH-DA probe based ROS assay; type: functional, organism-based
[24] = Methemoglobin toxicity in human blood at 500 uM incubated for 6 hrs by MetHb content assay; type: tissue-based
Staphylococcus aureus [25] = assay: Anti-biofilm activity against methicillin-resistant Staphylococcus aureus assessed as growth inhibition at 0.031 microg/ml incubated for 24 hrs by microplate reader analysis relative to control; type: functional
Acinetobacter baumannii [26] = assay: Anti-biofilm activity against of Acinetobacter baumannii assessed as growth inhibition at 2 microg/ml incubated for 24 hrs by microplate reader analysis relative to control; type: functional
Staphylococcus aureus [27] = assay: Anti-biofilm activity against mature methicillin-resistant Staphylococcus aureus at 8 microg/ml incubated for 24 hrs by microplate reader analysis; type: functional; details: dose 8 µg/ml
Acinetobacter baumannii [28] = assay: Anti-biofilm activity against Acinetobacter baumannii at 0.5 to 64 microg/ml incubated for 24 hrs by microplate reader analysis; type: functional; details: dose 0.5-64 µg/ml, at 0.5 to 64 µg/mL
Staphylococcus aureus [29] = assay: Anti-biofilm activity against methicillin-resistant Staphylococcus aureus assessed as growth inhibition at 4 microg/ml incubated for 24 hrs by microplate reader analysis relative to control; type: functional
Acinetobacter baumannii [30] = assay: Anti-biofilm activity against Acinetobacter baumannii assessed as growth inhibition at 32 microg/ml incubated for 24 hrs by microplate reader analysis relative to control; type: functional
Peptide deformylase = molecular target: T1, Peptide deformylase (Escherichia coli, UniProt Q9JN24); assay: Inhibition of Escherichia coli PDF-Ni assessed as enzyme activity incubated for 30 min by fluorescamine method
T1 sequence (Q9JN24 whole entry): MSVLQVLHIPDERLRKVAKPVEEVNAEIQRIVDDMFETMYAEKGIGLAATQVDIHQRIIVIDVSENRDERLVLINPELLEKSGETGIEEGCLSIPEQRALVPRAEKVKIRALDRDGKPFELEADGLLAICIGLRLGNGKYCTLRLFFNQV

[31] = Acute toxicity in KM mouse infected with drug-resistant Acinetobacter baumannii assessed as survival rate at 40 mg/kg; type: organism-based; details: in vivo
Acinetobacter baumannii [32] = assay: In vivo anti-bacterial activity against drug-resistant Acinetobacter baumannii infected MK mouse; type: functional
[33] = Acute toxicity in KM mouse infected with drug-resistant Acinetobacter baumannii assessed as pathological changes in lungs at 40 mg/kg by HE staining based analysis; type: organism-based; details: in vivo
[34] = Acute toxicity in KM mouse infected with drug-resistant Acinetobacter baumannii assessed as pathological changes in kidney at 40 mg/kg by HE staining based analysis; type: organism-based; details: in vivo
[35] = Acute toxicity in normal mouse assessed as death at 200 mg/kg, iv observed for 14 days; type: organism-based; details: in vivo, 336 h, time 14 day
[36] = Acute toxicity in normal mouse assessed as death at 400 mg/kg, iv observed for 14 days; type: organism-based; details: in vivo, 336 h, time 14 day
Staphylococcus aureus [37] = assay: Bactericidal activity against methicillin-resistant Staphylococcus aureus assessed as bacteriostatic efficiency at 0.25 microg/mL incubated for 24 hrs by time killing analysis relative to control; type: functional; details: dose 0.25 µg/ml
Acinetobacter baumannii [38] = assay: Bactericidal activity against drug-resistant Acinetobacter baumannii assessed as bacteriostatic efficiency at 0.5 to 2 microg/mL by time killing analysis; type: functional, organism-based; details: dose 0.5-2 µg/ml, time 0-25 hrs
Acinetobacter baumannii [39] = assay: Bactericidal activity against drug-resistant Acinetobacter baumannii assessed as bacteriostatic efficiency measured after 0 to 24 hrs by time killing analysis; type: functional, organism-based; details: dose 0.5-2 µg/ml, time 0-24 hrs
Acinetobacter baumannii [40] = assay: In vivo anti-bacterial activity against drug-resistant Acinetobacter baumannii infected MK mouse assessed as pathological changes of organs at 40 mg/kg; type: functional, organism-based
[41] = Acute toxicity in normal mouse assessed as aberrant behaviors at 400 mg/kg, iv observed for 14 days; type: organism-based; details: in vivo, 336 h, time 14 day

CCCC[C@H](CN(O)C=O)C(=O)N1CCC[C@H]1c1nnc(-c2cccs2)s1
MIC (Staphylococcus aureus [1]): 0.125 µg/mL (≈ 0.306 µM) | MIC (Staphylococcus aureus [2]): 0.125 µg/mL (≈ 0.306 µM) | MIC (Staphylococcus aureus [3]): 0.25 µg/mL (≈ 0.612 µM) | MIC (Staphylococcus aureus [4]): 0.25 µg/mL (≈ 0.612 µM) | MIC (Staphylococcus aureus [5]): 0.25 µg/mL (≈ 0.612 µM) | MIC [6]: 0.125 µg/mL (≈ 0.306 µM) | MIC (Klebsiella pneumoniae [7]): 8 µg/mL (≈ 19.6 µM) | MIC (Acinetobacter baumannii [8]): 4 µg/mL (≈ 9.79 µM) | MIC (Acinetobacter baumannii [9]): 0.5 µg/mL (≈ 1.22 µM) | MIC (Acinetobacter baumannii [10]): 0.5 µg/mL (≈ 1.22 µM) | MIC (Acinetobacter baumannii [11]): 4 µg/mL (≈ 9.79 µM) | MIC (Klebsiella pneumoniae [12]): 16 µg/mL (≈ 39.2 µM) | MIC (Klebsiella pneumoniae [13]): 16 µg/mL (≈ 39.2 µM) | MIC (Escherichia coli [14]): 8 µg/mL (≈ 19.6 µM) | MIC (Escherichia coli [15]): 8 µg/mL (≈ 19.6 µM) | IC50 at 24 h [16]: > 100 µM | IC50 at 24 h [17]: > 100 µM | solubility at 2 h [18]: 2600 µg/mL (≈ 6360 µM) | Ratio (Escherichia coli [19]): >16 | Ratio (Acinetobacter baumannii [20]): >64 | Activity (Cell membrane): Active | Activity (Staphylococcus aureus [21]): Active | Activity (Acinetobacter baumannii [22]): Active | Activity (Acinetobacter baumannii [23]): Active | Activity [24]: Toxic | inhibition at 0.031 µg/mL (Staphylococcus aureus [25]): 40% | inhibition at 2 µg/mL (Acinetobacter baumannii [26]): 50% | Activity (Staphylococcus aureus [27]): 60% | Activity (Acinetobacter baumannii [28]): 7.1% | inhibition at 4 µg/mL (Staphylococcus aureus [29]): 88% | inhibition at 32 µg/mL (Acinetobacter baumannii [30]): 70% | IC50 (Peptide deformylase): 0.0106 µM | Activity [31]: Non-toxic | ED50 (Acinetobacter baumannii [32]): 30.4 mg/kg | Activity [33]: Non-toxic | Activity [34]: Non-toxic | Activity [35]: Non-toxic | Activity [36]: Non-toxic | Activity (Staphylococcus aureus [37]): 100% | Activity (Acinetobacter baumannii [38]): Dose-dependent-effect | Activity (Acinetobacter baumannii [39]): Dose-dependent-effect | Activity (Acinetobacter baumannii [40]): inactive | Activity [41]: Non-toxic
